# Legend:
# L. acidophilus NCFM = experiment: Growth of L. acidophilus NCFM on plant glycosides as single carbon source (OD600); format: cell-based, Lactobacillus acidophilus; settings: SDM + 1% (w/v) carbohydrate (0.5% esculin), 37° C., 30 hours; corrected to medium without carbohydrate
# Protocol: For initial growth and gene expression studies, L. acidophilus NCFM was propagated three times in semi-defined medium (SDM) supplemented with either 1% or 0,5% (w/v) of the plant glycoside or carbohydrate (Table 1). For the RNA-seq analysis, cells were harvested by centrifugation (3,220×10 min, 25° C.) in the mid-exponential phase (OD600=0.6-0.8) and stored at −80° C. for subsequent RNA isolation. For the mass spectrometry metabolite analyses, 200 μt samples were taken at 0, 3, 6, 9, 12, and 24 hours of growth; cells were removed by centrifugation; and supernatants were stored at −80° C. for further analysis.
# (§1) Phenotypic growth assays were performed using 1% (v/v) overnight cultures of L. acidophilus strains (Table 2) and other Lactobacillus species (Table 3) grown on SDM supplemented with 1% (w/v) glucose to inoculate 200 μL of SDM supplemented with 1% (w/v) of the examined carbohydrate (0.5% in the case of esculin) in 96-well microplate wells (Corning Costar, Corning, N.Y., USA) in duplicate or triplicate wells, respectively. The microplates were sealed with clear adhesive film, incubated at 37° C. in a Fluostar Optima microplate reader (BMG Labtech, Cary, N.C., USA), and the cell optical density (OD600) was monitored for 30 hours.
# The growth of L. acidophilus NCFM was evaluated on twelve chemically diverse, nutritionally relevant and/or therapeutically active PGs 1; Table 1). FIG. 1A provides the structures and common sources of plant glycoside substrates described herein. The compounds that support growth of Lactobacillus acidophilus are in green. RI: β-D-Glcp; R2: Gentiobioside (β-D-Glcp-(1,6)-D-Glcp); R3: Rutinoside (α-L-Rhaf-(1,6)-D-Glcp). The graph in FIG. 1B depicts plant glycoside utilization analyzed by mass spectrometry and the growth as the maximum OD600. Due to the low solubility of polydatin, OD600 cannot be used as a growth metric and utilization of this compound is confirmed by the production of lactate as well as a high utilization level based on the metabolite analysis.
# L. acidophilus LA-1 = experiment: Phenotypic growth assay (OD600); format: cell-based; settings: SDM + 1% (w/v) carbohydrate (0.5% esculin), 37° C., 30 hours; corrected to medium without carbohydrate
# Protocol: as §1
# [1] = tested on: L. amyloverus ATCC 33620, DSM 20531; experiment: Phenotypic growth assay (OD600); format: cell-based; settings: SDM + 1% (w/v) carbohydrate (0.5% esculin), 37° C., 30 hours; corrected to medium without carbohydrate
# Protocol: as §1
# L. animalis DSM 20602 = experiment: Phenotypic growth assay (OD600); format: cell-based; settings: SDM + 1% (w/v) carbohydrate (0.5% esculin), 37° C., 30 hours; corrected to medium without carbohydrate
# Protocol: as §1
# [2] = tested on: L. crispatus ATCC 33820, DSM 20584; experiment: Phenotypic growth assay (OD600); format: cell-based; settings: SDM + 1% (w/v) carbohydrate (0.5% esculin), 37° C., 30 hours; corrected to medium without carbohydrate
# Protocol: as §1
# L. fermentum ATCC 14931 = experiment: Phenotypic growth assay (OD600); format: cell-based; settings: SDM + 1% (w/v) carbohydrate (0.5% esculin), 37° C., 30 hours; corrected to medium without carbohydrate
# Protocol: as §1
# L. gasseri ATCC 33323 = experiment: Phenotypic growth assay (OD600); format: cell-based; settings: SDM + 1% (w/v) carbohydrate (0.5% esculin), 37° C., 30 hours; corrected to medium without carbohydrate
# Protocol: as §1
# L. helveticus CNRZ32 = experiment: Phenotypic growth assay (OD600); format: cell-based; settings: SDM + 1% (w/v) carbohydrate (0.5% esculin), 37° C., 30 hours; corrected to medium without carbohydrate
# Protocol: as §1
# [3] = tested on: L. intestinalis Th4, ATCC 49335, DSM 6629; experiment: Phenotypic growth assay (OD600); format: cell-based; settings: SDM + 1% (w/v) carbohydrate (0.5% esculin), 37° C., 30 hours; corrected to medium without carbohydrate
# Protocol: as §1
# [4] = tested on: L. jensenii ATCC 25258, 62G, DSM 20557; experiment: Phenotypic growth assay (OD600); format: cell-based; settings: SDM + 1% (w/v) carbohydrate (0.5% esculin), 37° C., 30 hours; corrected to medium without carbohydrate
# Protocol: as §1
# L. johnsonii ATCC 33200 = experiment: Phenotypic growth assay (OD600); format: cell-based; settings: SDM + 1% (w/v) carbohydrate (0.5% esculin), 37° C., 30 hours; corrected to medium without carbohydrate
# Protocol: as §1
# [5] = tested on: L. plantarum sp. plantarum ATCC 14917, LA70; experiment: Phenotypic growth assay (OD600); format: cell-based; settings: SDM + 1% (w/v) carbohydrate (0.5% esculin), 37° C., 30 hours; corrected to medium without carbohydrate
# Protocol: as §1
# [6] = tested on: L. reuteri (ATCC 23272, DSM 20016); experiment: Phenotypic growth assay (OD600); format: cell-based; settings: SDM + 1% (w/v) carbohydrate (0.5% esculin), 37° C., 30 hours; corrected to medium without carbohydrate
# Protocol: as §1
# [7] = tested on: L. rhanmosus GG (ATCC 53103); experiment: Phenotypic growth assay (OD600); format: cell-based; settings: SDM + 1% (w/v) carbohydrate (0.5% esculin), 37° C., 30 hours; corrected to medium without carbohydrate
# Protocol: as §1
# NCK2422 (ΔLBA0725) = experiment: Phenotypic growth analysis of deletion mutant (PTS EIICBA); format: cell-based, Lactobacillus acidophilus
# Protocol: as §1
# Construction of gene deletion mutants. The L. acidophilus NCFM genes LBA0225 and LBA0726, both encoding P-Bgl of glycoside hydrolase family 1 (GH1) enzymes in addition to the LBA0227 and LBA0725 genes encoding an EIIC and an EIICBA components of two PTS systems, respectively, were deleted using the upp-based counterselectable gene replacement system. Briefly, in-frame deletions were constructed by amplifying 650-750 bp of the up- and downstream flanking regions of the deletion targets with two primer pairs (e.g., LBA0225A/LBA0225B and LBA0225C/LBA0225D; Table 4). The resulting purified products were joined by splicing using overlap extension PCR (SOE-PCR63) and amplified to establish the deletion alleles. The SOE-PCR products, that include flanking restriction enzyme sites, were cloned within the BamHI and SacI/EcoRI sites of the pTRK935 integration vector and transformed into E. coli EC101. The resulting recombinant plasmids (pTRK1113-6) were confirmed by DNA sequencing and electroporated into L. acidophilus NCK1910 (Table 2) that contains the pTRK669 helper plasmid, and the recovery of the single- and double-crossover recombinants was performed as previously described. Recombinants carrying the new gene deletion alleles were isolated by colony PCR using primer pairs denoted up/down (e.g., LBA0225up/LBA0225down), which anneal to the flanking regions of the amplicons. Sequence integrity and in-frame deletions were verified by DNA sequencing employing the aforementioned primer pairs and primer denoted mid (e.g., LBA0225mid). The mutations were in-frame deletions of 90-96% of the coding regions.
# To establish the functional significance of these two loci, single deletions of each PTS EII and P-Bgl gene, and a double deletion of both P-Bgl genes were constructed using the upp-based counter-selectable gene replacement system (Table 2) and the growth phenotypes of the mutant strains were analyzed (FIG. 3). Phenotypic growth analyses of deletion mutants of EII PTS transporters (FIGS. 3A, 3C, 3E, 3G, and 3I) and phospho-β-glucosidase (FIGS. 3B, 3D, 3F, 3H, and 3J) on the β-glucosides esculin, salicin, amygdalin and the disaccharides gentiobiose and cellobiose. The background Aupp strain is shown as a grey fill graph and the growth of the mutant strains is shown as: PTS EIIC (LBA0227, pink triangle), the phospho-β-glucosidase (LBA0225, light blue triangles), the PTS EIICBA (LBA0725, yellow squares), the second phospho-β-glucosidase (LBA0726, lilac squares) and the double phospho-β-glucosidase mutant (LBA0225/LBA0726, black stars). The color scheme is consistent with that used for the gene loci in FIG. 2.
# NCK2424 (ΔLBA0726) = experiment: Phenotypic growth analysis of deletion mutant (phospho-β-glucosidase); format: cell-based, Lactobacillus acidophilus; settings: compared with background Δupp strain
# Protocol: as §1
# Construction of gene deletion mutants. The L. acidophilus NCFM genes LBA0225 and LBA0726, both encoding P-Bgl of glycoside hydrolase family 1 (GH1) enzymes in addition to the LBA0227 and LBA0725 genes encoding an EIIC and an EIICBA components of two PTS systems, respectively, were deleted using the upp-based counterselectable gene replacement system. Briefly, in-frame deletions were constructed by amplifying 650-750 bp of the up- and downstream flanking regions of the deletion targets with two primer pairs (e.g., LBA0225A/LBA0225B and LBA0225C/LBA0225D; Table 4). The resulting purified products were joined by splicing using overlap extension PCR (SOE-PCR63) and amplified to establish the deletion alleles. The SOE-PCR products, that include flanking restriction enzyme sites, were cloned within the BamHI and SacI/EcoRI sites of the pTRK935 integration vector and transformed into E. coli EC101. […]
# To establish the functional significance of these two loci, single deletions of each PTS EII and P-Bgl gene, and a double deletion of both P-Bgl genes were constructed using the upp-based counter-selectable gene replacement system (Table 2) and the growth phenotypes of the mutant strains were analyzed (FIG. 3). […]
structure (smiles),measurement,setting,value
"O=C[C@H](O)[C@@H](O)[C@H](O[C@@H]1O[C@H](CO)[C@@H](O)[C@H](O)[C@H]1O)[C@H](O)CO [Cellobiose, reference compound]",Growth (OD600 max class) of L. acidophilus NCFM,L. acidophilus NCFM,++ (“++” signifies 0.6 > OD600 max > 0.3.)
same,Growth (OD600 max class) of L. acidophilus LA-1,L. acidophilus LA-1,+++ (“+++” signifies OD600 max > 0.6.)
same,"Growth (OD600 max class) of L. amyloverus ATCC 33620, DSM 20531",[1],+++ (“+++” signifies OD600 max > 0.6.)
same,Growth (OD600 max class) of L. animalis DSM 20602,L. animalis DSM 20602,+ (“+” signifies 0.3 > OD600 max > 0.1.)
same,"Growth (OD600 max class) of L. crispatus ATCC 33820, DSM 20584",[2],− (“−” signifies OD600 max < 0.1.)
same,Growth (OD600 max class) of L. fermentum ATCC 14931,L. fermentum ATCC 14931,− (“−” signifies OD600 max < 0.1.)
same,Growth (OD600 max class) of L. gasseri ATCC 33323,L. gasseri ATCC 33323,++ (“++” signifies 0.6 > OD600 max > 0.3.)
same,Growth (OD600 max class) of L. helveticus CNRZ32,L. helveticus CNRZ32,+ (“+” signifies 0.3 > OD600 max > 0.1.)
same,"Growth (OD600 max class) of L. intestinalis Th4, ATCC 49335, DSM 6629",[3],− (“−” signifies OD600 max < 0.1.)
same,"Growth (OD600 max class) of L. jensenii ATCC 25258, 62G, DSM 20557",[4],++ (“++” signifies 0.6 > OD600 max > 0.3.)
same,Growth (OD600 max class) of L. johnsonii ATCC 33200,L. johnsonii ATCC 33200,+ (“+” signifies 0.3 > OD600 max > 0.1.)
same,"Growth (OD600 max class) of L. plantarum sp. plantarum ATCC 14917, LA70",[5],+++ (“+++” signifies OD600 max > 0.6.)
same,"Growth (OD600 max class) of L. reuteri (ATCC 23272, DSM 20016)",[6],− (“−” signifies OD600 max < 0.1.)
same,Growth (OD600 max class) of L. rhanmosus GG (ATCC 53103),[7],+++ (“+++” signifies OD600 max > 0.6.)
same,reduction of growth on inactivation of the EIICBA (LBA0725),NCK2422 (ΔLBA0725),about 50%
same,growth of the ΔLBA0725 mutant (inactive PTS EIICBA),NCK2422 (ΔLBA0725); compared with background Δupp strain,moderately reduced
same,growth of the ΔLBA0726 mutant (P-Bgl),NCK2424 (ΔLBA0726),unaffected
